Assay results from patent US20130183239A1, “ISOTOPIC CARBON CHOLINE ANALOGS” (IMPERIAL COLLEGE, priority 2010, published 2013).
Entries after “also recorded” stand apart in the source; their conditions may differ.

Experiments:
[1] = mouse, in vivo
Description: Metabolite analysis of tissues including liver, kidney and tumor by HPLC was also accomplished. […] Choline and its metabolites lack any UV chromophore to permit presentation of chromatograms of the cold unlabelled compound simultaneously with the radioactivity chromatograms.
Liver, kidney, and tumor samples were obtained at 30 min. All samples were snap-frozen in liquid nitrogen. For analysis, samples were thawed and kept at 4° C. immediately before use. To ˜0.2 mL plasma was added ice-cold methanol (1.5 mL). The mixture was then centrifuged (3 min, 15,493×g, 4jC). The supernatant was evaporated to dryness using a rotary evaporator (Heidoloph Instruments) at a bath temperature of 40° C. The residue was suspended in mobile phase (1.1 mL), clarified (0.2 Am filter), and analyzed by HPLC. Liver, kidney, and tumor samples were homogenized in ice-cold methanol (1.5 mL) using an IKA Ultra-Turrax T-25 homogenizer and subsequently treated as per plasma samples (above). All samples were analyzed by radio-HPLC on an Agilent 1100 series HPLC system (Agilent Technologies) equipped with a γ-RAM Model 3 γ-detector (IN/US Systems) and Laura 3 software (Lablogic). The stationary phase comprised a Waters μBondapak C18 reverse-phase column (300×7.8 mm) (Waters, Milford, Mass., USA). Samples were analyzed using a mobile phase comprising solvent A (acetonitrile/water/ethanol/acetic acid/1.0 mol/L ammonium acetate/0.1 mol/L sodium phosphate; 800/127/68/2/3/10) and solvent B (acetonitrile/water/ethanol/acetic acid/1.0 mol/L ammonium acetate/0.1 mol/L sodiumphosphate; 400/400/68/44/88/10) with a gradient of 0% B for 6 min, then 0→100% B in 10 min, 100% B for 0.5 min, 100→0% B in 1.5 min then 0% B for 2 min, delivered at a flow rate of 3 mL/min.

[2] = C3H-Hej, mouse, in vivo, iv, 15 min
choline oxidase = settings: 60 min, 1.76 MBq/mL, pH 7
[3] = system: human melanoma SKMEL-28 xenografts; settings: mouse, in vivo, 60 min
Description: (§1) Dynamic [^18F]FCH and [^18F]D4-FCH imaging scans were carried out on a dedicated small animal PET scanner, quad-HIDAC (Oxford Positron Systems). The features of this instrument have been described previously (Barthel, H., et al., Cancer Res 2003; 63(13):3791-8). For scanning the tail veins, vehicle- or drug-treated mice were cannulated after induction of anesthesia (isofluorane/O2/N2O). The animals were placed within a thermostatically controlled jig (calibrated to provide a rectal temperature of ˜37° C.) and positioned prone in the scanner. [^18F]FCH or [^18F]D4-FCH (2.96-3.7 MBq) was injected via the tail vein cannula and scanning commenced. Dynamic scans were acquired in list mode format over a 60 min period as reported previously (Leyton, J., et al., Cancer Research 2006; 66(15):7621-9). The acquired data were sorted into 0.5 mm sinogram bins and 19 time frames (0.5×0.5×0.5 mm voxels; 4×15, 4×60, and 11×300 s) for image reconstruction, which was done by filtered back-projection using a two-dimensional Hamming filter (cutoff 0.6). The image data sets were visualized using the Analyze software (version 6.0; Biomedical Imaging Resource, Mayo Clinic). Cumulative images of 30 to 60 min dynamic data were used for visualization of radiotracer uptake and to draw regions of interest. Regions of interest were defined manually on five adjacent tumor regions (each 0.5 mm thickness). Dynamic data from these slices were averaged for each tissue (liver, kidney, muscle, urine, and tumor) and at each of the 19 time points to obtain time versus radioactivity curves. Corresponding whole body time versus radioactivity curves representing injected radioactivity were obtained by adding together radioactivity in all 200×160×160 reconstructed voxels. Tumor radioactivity was normalized to whole-body radioactivity and expressed as percent injected dose per voxel (% ID/vox). The normalized uptake of radiotracer at 60 min (% ID/vox60) was used for subsequent comparisons. The average of the normalized maximum voxel intensity across five slices of tumor % IDvox60max was also use for comparison to account for tumor heterogeneity and existence of necrotic regions in tumor. The area under the curve was calculated as the integral of % ID/vox from 0 to 60 min.

[4] = mouse, in vivo, 60 min
Description: as §1

[5] = Potassium permanganate oxidation study; format: physicochemical; settings: 1 hour post-treatment with potassium permanganate, room temperature, radio-HPLC
From the text: Reagents and Conditions: i) KMnO4, Na2CO3, H2O, rt.

HCT116 tumors = assay: PD0325901 treatment of HCT116 tumor-bearing mice with [18F]D4-FCH-PET; format: in vivo
Description: (§2) Size-matched HCT116 tumor bearing mice were randomized to receive daily treatment by oral gavage of vehicle (0.5% hydroxypropyl methylcellulose+0.2% Tween 80) or 25 mg/kg (0.005 mL/g mouse) of the mitogenic extracellular kinase inhibitor, PD0325901, prepared in vehicle. [^18F]D4-FCH-PET scanning was done after 10 daily treatments with the last dose administered 1 h before scanning. […] The results are illustrated in FIGS. 18 and 19.
These studies were performed in a reproducible tumor model system in which treatment outcomes had been previously characterized, i.e., the human colon carcinoma xenograft HCT116 treated with PD0325901 daily for 10 days (Leyton, J., et al., “Noninvasive imaging of cell proliferation following mitogenic extracellular kinase inhibition by PD0325901”, Mol Cancer Ther 2008; 7(9):3112-21). […] All imaging variables decreased after 10 days of drug treatment (P=0.05, FIG. 18). […] To understand the biomarker changes, the intrinsic cellular effect of PD0325901 on D4-FCH-phosphocholine formation was examined by treating exponentially growing HCT116 cells in culture with PD0325901 for 24 h and measuring the 60-min uptake of [^18F]D4-FCH in vitro.

choline kinase A (CHKA) = assay: Western blot of choline kinase A expression in HCT116 tumors after PD0325901; format: in vivo, human; settings: HCT116 tumors at day 10, western blot
Description: HCT116 tumors from mice that were injected with PD0325901 (25 mg/kg daily for 10 days, orally) or vehicle were analyzed for CHKA expression by western blotting. β-actin was used as the loading control. (b) Summary densitometer measurements for CHKA expression expressed as a ratio to β-actin. The results are the mean ratios±SE; n=3, * P=0.05.
as §2
To understand further the mechanisms regulating [^18F]D4-FCH uptake with drug treatment, changes in CHKA expression in PD0325901 and vehicle-treated tumors excised after PET scanning were assessed.

HCT116 cells = assay: [18F]D4-FCH-phosphocholine formation in HCT116 cells treated with PD0325901; format: cell-based, human; settings: PD0325901 1 μM for 24 h, 60-min uptake
Description: HCT116 cells were grown in T150 flasks in triplicate until they were 70% confluent and then treated with vehicle (1% DMSO in growth medium) or 1 μmol/L PD0325901 in vehicle for 24 h. Cells were pulsed for 1 h with 1.1 MBq of either […]D4—FCH or [^18F]FCH. The cells were washed three times in ice-cold phosphate buffered saline (PBS), scraped into 5 mL PBS, and centrifuged at 500×g for 3 min and then resuspended in 2 mL ice-cold methanol for HPLC analysis as described above for tissue samples. […] Briefly, HCT116 cells were grown in 100 mm dishes in triplicate and incubated with 5.0 MBq [^18F]FCH for 60 min at 37° C. to form the putative [^18F]FCH-phosphate. The cells were washed with 5 mL ice-cold PBS twice and then scraped and centrifuged at 750×g (4° C., 3 min) in 5 mL PBS. Cells were homogenized in 1 mL of 5 mmol/L Tris-HCl (pH 7.4) containing 50% (v/v) glycerol, 0.5 mmol/L MgCl2, and 0.5 mmol/L ZnCl2 and incubated with 10 units bacterial (type III) alkaline phosphatase (Sigma) at 37° C. in a shaking water bath for 30 min to dephosphorylate the [^18F]FCH-phosphate. The reaction was terminated by adding ice-cold methanol. Samples were processed as per plasma above and analyzed by radio-HPLC. Control experiments were done without alkaline phosphatase. […]

CHKA = CHKA expression in exponentially growing cells treated with PD0325901; format: cell-based

Compound | unknown metabolite (possibly the aldehyde intermediate) in liver [1] | kidney radioactivity as phosphocholine ([1]; 30 min) [%] | kidney radioactivity in the form of betaine ([1]; 30 min) [%] | unknown metabolite in kidney ([1]; 30 min) [%] | form of radioactivity in tumors ([1]; iv, 30 min) | conversion to betaine metabolite in plasma [2] [%] | parent radiotracer present (choline oxidase) [%] | Tumor % ID/vox60 [3] [% ID/vox] | Bladder (urine) % ID/vox60 [4] [% ID/vox] | Kidney % ID/vox60 [4] [% ID/vox] | Liver radioactivity % ID/vox60 [4] [% ID/vox] | parent compound still present [5] | tumor [18F]D4-FCH uptake / retention (HCT116 tumors; HCT116 tumors, 10 days of 25 mg/kg daily vs vehicle, 25 mg/kg) | reduction in tumor size (HCT116 tumors; day 10 compared to the pretreatment group, 25 mg/kg daily, oral) [%] | CHKA protein expression in vivo (choline kinase A (CHKA)) | [18F]D4-FCH-phosphocholine formation (HCT116 cells) | CHKA expression in vitro (CHKA)
C[N+](C)(C[18F])CCO [[^18F]FCH, [^18F]Fluoromethylcholine, reference compound] | not found | 31.8±9.8 | 53.5±5.3 | 3.3±0.6 | significant levels of [^18F]FCH-betaine | ~80 | 11±8 | 5.50±0.49 | 6.70±0.71 | 15.97±4.65 | 18.75±4.28 | less than 40% |  |  |  |  | 
O=C(NOC[C@H](O)CO)c1ccc(F)c(F)c1Nc1ccc(I)cc1F [PD0325901] |  |  |  |  |  |  |  |  |  |  |  |  | significant reduction in tumor [^18F]D4-FCH uptake; also recorded: marked reduction in radiotracer retention | 12.2 | significant reduction | significantly inhibited | reduction of CHKA expression
